Patent US20170049716A1, “NITISINONE DOSING REGIMENS FOR THE TREATMENT OF ALKAPTONURIA” (Swedish Orphan Biovitrum International AB, priority 2014, published 2017)

Columns and labels:
[1] = system: homogentisic acid (HGA); assay: Urinary excretion of HGA over 24 hours (u-HGA24), dose-response study in patients with AKU; assay type: in vivo, human; details: for Relative decrease in u-HGA24, max / Relative decrease in u-HGA24, mean / Relative decrease in u-HGA24, median / Relative decrease in u-HGA24, min: baseline to week 4, N = 8
Description: A randomized, open-label, parallel-group dose-response study with a no-treatment control group was performed. Patients with AKU were randomized to receive either 1 mg, 2 mg, 4 mg or 8 mg nitisinone once daily (oral administration) or no treatment (control). Forty patients were randomized, equally distributed amongst the five groups (8 patients per group). Nitisinone was administered as an oral suspension containing 4 mg/mL. The following dose volumes were administered once daily, in the morning: Urinary excretion of HGA over a 24-hour period (u-HGA24) was assessed at weeks 0, 2 and 4. Urine was collected into 2.5-L bottles containing 30 mL of 5N H2SO4. The exact length of the collection interval and the volume of the collected urine were recorded. The concentration of HGA in the urine was measured by liquid chromatography tandem mass spectrometry (LCMSMS). The 24-hour excretion of HGA was calculated by multiplying the concentration with the volume of the collected urine, and correcting for any deviation from a 24-hour collection period. (There were no reports of missed samples within the collection interval.)

[2] = system: homogentisic acid (HGA); assay: Serum HGA (s-HGA) 24-hour profile, dose-response study in patients with AKU; assay type: in vivo, human; details: for Patients with no quantifiable serum HGA concentration in any sample over the 24-hour dosage interval: group of 8 patients, LLOQ 3.1 μmol/L
Description: A randomized, open-label, parallel-group dose-response study with a no-treatment control group was performed. Patients with AKU were randomized to receive either 1 mg, 2 mg, 4 mg or 8 mg nitisinone once daily (oral administration) or no treatment (control). Forty patients were randomized, equally distributed amongst the five groups (8 patients per group). Nitisinone was administered as an oral suspension containing 4 mg/mL. The following dose volumes were administered once daily, in the morning: Measurements of serum HGA (s-HGA) and tyrosine (s-Tyr) concentrations were performed at weeks 0, 2 and 4. At all visits a full 24-hour profile was determined at the following time-points: pre-dose (immediately after breakfast) and 0.5, 1,2, 3, 4, 6, 8, 10, 12, 15, 18,24 hours post-dose. The concentrations of HGA and tyrosine in the serum were measured by liquid chromatography tandem mass spectrometry (LCMSMS). The lower limit of quantification (LLOQ) for HGA was 3.1 μmol/L. Maximum and daily average serum concentrations of HGA and tyrosine were determined. The daily average concentrations were determined by dividing the area under the concentration vs. time curves, calculated by means of the trapezoidal rule, by 24.

[3] = system: homogentisic acid (HGA); details: 2 mg/day, 36 months, AKU patients; cited from earlier work
[4] = system: patients with AKU; details: 2 mg/day, 36 months; cited from earlier work
[5] = system: tyrosine; details: 2 mg daily, 20 patients, no diet restrictions, 3-year study; cited from earlier work
[6] = system: patients with HT-1; details: cited from earlier work
[7] = 1 mg once daily oral, Week 0 (baseline), N = 8
[8] = 1 mg once daily oral, Week 4, N = 8
[9] = 2 mg once daily oral, Week 0 (baseline), N = 8
[10] = 2 mg once daily oral, Week 4, N = 8
[11] = 4 mg once daily oral, Week 0 (baseline), N = 8
[12] = 4 mg once daily oral, Week 4, N = 8
[13] = 8 mg once daily oral, Week 0 (baseline), N = 8
[14] = 8 mg once daily oral, Week 4, N = 8

O=C1CCCC(=O)C1C(=O)c1ccc(C(F)(F)F)cc1[N+](=O)[O-] [nitisinone, 2-[2-nitro-4-(trifluoromethyl)benzoyl]-1,3-cyclohexanedione]
u-HGA24, max [1, 7]: 69502.9 μmol/24h | u-HGA24, mean [1, 7]: 36757.0 μmol/24h | u-HGA24, median [1, 7]: 34034.4 μmol/24h | u-HGA24, min [1, 7]: 20743.4 μmol/24h | u-HGA24, max [1, 8]: 6752.8 μmol/24h | u-HGA24, mean [1, 8]: 3931.0 μmol/24h | u-HGA24, median [1, 8]: 3415.6 μmol/24h | u-HGA24, min [1, 8]: 1847.6 μmol/24h | Relative decrease in u-HGA24, max ([1]; 1 mg once daily oral): 91.05% | Relative decrease in u-HGA24, mean ([1]; 1 mg once daily oral): 88.72% | Relative decrease in u-HGA24, median ([1]; 1 mg once daily oral): 87.99% | u-HGA24, max [1, 9]: 40747.2 μmol/24h | u-HGA24, mean [1, 9]: 31439.8 μmol/24h | u-HGA24, median [1, 9]: 31754.7 μmol/24h | u-HGA24, min [1, 9]: 19994.2 μmol/24h | u-HGA24, max [1, 10]: 3484.1 μmol/24h | u-HGA24, mean [1, 10]: 1602.5 μmol/24h | u-HGA24, median [1, 10]: 1515.6 μmol/24h | u-HGA24, min [1, 10]: 627.0 μmol/24h | Relative decrease in u-HGA24, max ([1]; 2 mg once daily oral): 96.86% | Relative decrease in u-HGA24, mean ([1]; 2 mg once daily oral): 94.78% | Relative decrease in u-HGA24, median ([1]; 2 mg once daily oral): 95.64% | Relative decrease in u-HGA24, min ([1]; 2 mg once daily oral): 89.08% | u-HGA24 ([1]; 2 mg or higher per day, with one exception): less than 2000 μmol | u-HGA24, max [1, 11]: 55393.9 μmol/24h | u-HGA24, mean [1, 11]: 35453.4 μmol/24h | u-HGA24, median [1, 11]: 31502.7 μmol/24h | u-HGA24, min [1, 11]: 14442.9 μmol/24h | u-HGA24, max [1, 12]: 1478.4 μmol/24h | u-HGA24, mean [1, 12]: 733.8 μmol/24h | u-HGA24, median [1, 12]: 790.5 μmol/24h | u-HGA24, min [1, 12]: 164.2 μmol/24h | Relative decrease in u-HGA24, max ([1]; 4 mg once daily oral): 99.41% | Relative decrease in u-HGA24, mean ([1]; 4 mg once daily oral): 98.15% | Relative decrease in u-HGA24, median ([1]; 4 mg once daily oral): 98.19% | Relative decrease in u-HGA24, min ([1]; 4 mg once daily oral): 96.74% | u-HGA24, max [1, 13]: 32896.6 μmol/24h | u-HGA24, mean [1, 13]: 27353.5 μmol/24h | u-HGA24, median [1, 13]: 28728.7 μmol/24h | u-HGA24, min [1, 13]: 17075.1 μmol/24h | u-HGA24, max [1, 14]: 223.0 μmol/24h | u-HGA24, mean [1, 14]: 146.3 μmol/24h | u-HGA24, median [1, 14]: 140.4 μmol/24h | u-HGA24, min [1, 14]: 83.1 μmol/24h | Relative decrease in u-HGA24, max ([1]; 8 mg once daily oral): 99.70% | Relative decrease in u-HGA24, mean ([1]; 8 mg once daily oral): 99.41% | Relative decrease in u-HGA24, median ([1]; 8 mg once daily oral): 99.52% | Relative decrease in u-HGA24, min ([1]; 8 mg once daily oral): 98.69% | Decrease of urinary excretion of HGA (up to) ([1]; 8 mg per day (highest dose)): > 99% | Suppression of the formation of HGA, estimated ([1]; 10 mg per day, estimated): almost completely | Decrease of u-HGA in a majority of patients, estimated by extrapolation ([1]; 15 mg per day, extrapolation): about 99.9% | Suppression of the formation of HGA ([1]; considerably higher doses than previously used in alkaptonuria): more than 99% | u-HGA24 of one patient ([1]; one patient on 2 mg, week 4): 3484 µmol | Daily average serum concentration of HGA, max [2, 7]: 44.1 µmol/L | Daily average serum concentration of HGA, mean [2, 7]: 34.2 µmol/L | Daily average serum concentration of HGA, median [2, 7]: 33.0 µmol/L | Daily average serum concentration of HGA, min [2, 7]: 25.5 µmol/L | Daily average serum concentration of HGA, max [2, 8]: 7.3 µmol/L | Daily average serum concentration of HGA, mean [2, 8]: 4.1 µmol/L | Daily average serum concentration of HGA, median [2, 8]: 3.9 µmol/L | Daily average serum concentration of HGA, min [2, 8]: 3.1 µmol/L | Daily average serum concentration of HGA, max [2, 9]: 59.1 µmol/L | Daily average serum concentration of HGA, mean [2, 9]: 36.6 µmol/L | Daily average serum concentration of HGA, median [2, 9]: 34.2 µmol/L | Daily average serum concentration of HGA, min [2, 9]: 25.1 µmol/L | Daily average serum concentration of HGA, max [2, 10]: 5.8 µmol/L | Daily average serum concentration of HGA, median [2, 10]: <3.1 µmol/L | Daily average serum concentration of HGA, min [2, 10]: <3.1 µmol/L | Patients with no quantifiable serum HGA concentration in any sample over the 24-hour dosage interval ([2]; 2 mg): 3 | Daily average serum concentration of HGA, max [2, 11]: 49.9 µmol/L | Daily average serum concentration of HGA, mean [2, 11]: 38.5 µmol/L | Daily average serum concentration of HGA, median [2, 11]: 37.7 µmol/L | Daily average serum concentration of HGA, min [2, 11]: 28.9 µmol/L | Daily average serum concentration of HGA, max [2, 12]: <3.1 µmol/L | Daily average serum concentration of HGA, median [2, 12]: <3.1 µmol/L | Daily average serum concentration of HGA, min [2, 12]: <3.1 µmol/L | Patients with no quantifiable serum HGA concentration in any sample over the 24-hour dosage interval ([2]; 4 mg): 4 | Daily average serum concentration of HGA, max [2, 13]: 47.7 µmol/L | Daily average serum concentration of HGA, mean [2, 13]: 36.6 µmol/L | Daily average serum concentration of HGA, median [2, 13]: 38.6 µmol/L | Daily average serum concentration of HGA, min [2, 13]: 25.2 µmol/L | Daily average serum concentration of HGA, median [2, 14]: <3.1 µmol/L | Daily average serum concentration of HGA, min [2, 14]: <3.1 µmol/L | Patients with no quantifiable serum HGA concentration in any sample over the 24-hour dosage interval ([2]; 8 mg): 7 | Reduction of urinary excretion on average, compared to pre-treatment levels [3]: about 95% | Effect on primary efficacy variable, hip rotation [4]: failed to show an effect | Tyrosine levels, average [5]: 800 µM | Tyrosine levels, range [5]: 332 to 1528 µM | IQ of treated children versus unaffected siblings ([6]; children treated with nitisinone (Bendadi et al.)): considerably lower | Cognitive impairment causing schooling difficulties, patients affected ([6]; school-age patients with HT-1 treated with nitisinone (Masurel-Paulet et al.)): eight out of 23
